Measurements from patent publication US20110028758A1, “Trans-cinnamic acid derivative, its preparation mathod and the use” (priority 2007, published 2011).
Converted amounts (≈) assume the structure as drawn. “Also recorded” adds a separate entry of the source. Read-outs that look alike come from different tables or passages of the source.

Key:
[1] = test system: human breast cancer MCF-7/S cells; assay: MTT anti-tumor test in vitro, MCF-7/S; format: cell-based; settings: Homo sapiens, MCF7S, 48 h, MCF-7 (MCF-7/S)
Description: (§1) A complete culture medium is used for diluting the above original solution into corresponding concentrations for later use.
(§2) Human cervical carcinoma Hela cells, human hepatoma BEL-7402 cells, mucinous Human epidermoid A549 lung cancer cells, human breast cancer MCF-7/S cells, human glioma U251 cells, and human normal embryonic kidney HEK-293 cells are purchased from USA, American Type Culture Collection (ATCC). All the tumor cells are used the DMEM medium (containing 10% FBS, 100 U/ml penicillin and 100 μg/ml streptomycin) for culturing and subculturing, and HEK-293 cells are using RPMI1640 medium (10% FBS, 100 U/ml penicillin, and 100 μg/ml streptomycin) for culturing and subculturing, wherein the culture condition is in a 5% CO2 incubator at 37° C.
(§3) Subculture six kinds of cells, which has a logarithmic growing period, adherent rate about 80%, and in good condition, such as human cervical carcinoma Hela cells, human hepatoma BEL-7402 cells, mucinous Human epidermoid A549 lung cancer cells, human breast cancer MCF-7/S cells, human glioma U251 cells, and human normal embryonic kidney HEK-293 cells. Discard the culture medium, rinse 1-2 times with PBS to remove serum, add 1 ml 0.25% Trypsin-0.01% EDTA (37° C. incubation) to digest for 1-2 minutes, add FBS culture medium to terminate the above digestion, centrifuge at a speed below 800 r/min for 2-3 minutes and discard the supernatant, re-suspended cells in 10% FBS medium, tack the cell suspension liquid for cell counting, adjust the density of the above liquid to 1×10^5/ml, then inoculate to a 96-holes plates (100 μl/hole), and then incubate in 5% CO2 incubator at 37° C. overnight. The next day add above cells to different concentrations of I-a, I-b, I-c and I-d, 100 μl/hole (its final concentration is respectively 30, 60, 120, 240, 480 μg/ml); meanwhile, set up the blank control group (0 μM), and establish 3 holes. Continuing the cultural process, discard the culture medium after 48 hours that the drug has been effected, add 100 μl PBS of 0.5 mg/ml MTT (PH 7.2) into each holes, after 4 hours culture, remove the culture medium by adherent cells express flipping method, add 100 μl of DMSO to each holes, oscillate it by micro-oscillation device for 5 minutes, and measure the OD value at 490 nm wavelength. Repeat the above experiment three times to get an average value. Calculate the inhibition rate (IR %) of the tumor cell proliferation in vitro from different concentrations of I-a, I-b, I-c, I-d by the following formula:
(§4) IR %=(1−ODsampale/ODcontrol)×100%
(§5) Use SPSS11.5 software to calculate the half inhibitory concentration IC50 of I-a, I-b, I-c and I-d. The results are shown in Table 2 to illustrate IC50 values (unit: μg/ml) of the four compounds.

[2] = test system: mice ascites hepatoma cell strain H22; assay: Anti-tumor test in vivo, mice transplanted tumor of liver cancer H22; parameters: species or system Kunming mice
Experimental: The mice ascites hepatoma cell strain H22 is purchased from the Experimental Center of Zhongshan University.
Recovery the mice ascites hepatoma cell strain H22, put the cell suspension liquid into a centrifugal tube and use the 4° C. saline to wash the suspension liquid twice, then centrifuge to discard the supernatant, add appropriate 4° C. saline to dilute the suspension liquid, count cells with 0.2% trypan blue, adjust the density to 10^7 cell/ml, according to 0.2 (ml/mice) intraperitoneal inoculation H22 cell suspension liquid.
After ten days of the intraperitoneal inoculation, the cervical vertebra is dislocated. Disinfect the mice abdominal skin, and suck the milky ascites with a sterile syringe, then adjust the concentration of tumor cells to 1×10^7 cell/ml with injection used saline. Disinfect the right armpit skin of the Kunming mice with alcohol swab, subcutaneously vaccinate the cell suspension liquid 0.2 ml, conventional feeding. […] Totally there are 180 tumor-bearing mice.
The 180 tumor-bearing mice are divided into 18 groups by the weigh of the mice, wherein each group has 10 mice (half male and half female). The drug delivery methods of each group are shown in Table 3 to illustrate eighteen groups of mice drug delivery situation.
Group 1 is the model group, and the mice of group 1 are given the tail vein saline injection daily started on the second day of the tumor-bearing for 10 days.
Group 2 is the cyclophosphamide (CTX) group, and the mice of group 2 are only given the cyclophosphamide in the intraperitoneal of the mice on the second day of the tumor-bearing.
Group 3 to 18 groups are given the four compounds respectively, wherein the groups delivered 25 mg/kg drug are tail vein low-dose group, wherein the groups delivered 50 mg/kg drugs are the tail vein medium-dose group, wherein the groups delivered 100 mg/kg drugs are the tail vein high-dose group, wherein the groups delivered 200 mg/kg drugs are the oral enteral group. These mice from group 3 to 18 start the drug delivery on the second day of the tumor-bearing, and delivered once a day for 10 sequent days.
The above drug deliveries are 20 ml/kg.
After finishing the drug delivery process, weight the mice, then kill the mice by pulling off the neck, and anatomy to get the tumor tissue of the mice on the next day of finishing the drug delivery process, and then weight the anatomized tumor by electronic weighing scales to calculate the inhibition rate.

[3] = test system: human cervical carcinoma Hela cells; assay: MTT anti-tumor test in vitro, Hela; format: cell-based; settings: Homo sapiens, HeLa, 48 h
Description: as §1, §2, §3, §4, §5

[4] = test system: mucinous Human epidermoid A549 lung cancer cells; assay: MTT anti-tumor test in vitro, A549; format: cell-based; settings: Homo sapiens, A549, 48 h
Description: as §1, §2, §3, §4, §5

[5] = Solubility of compounds in solvents (Table 1); format: physicochemical
[6] = single tail vein administration 350 mg/kg; for death / survival in acute toxicity test: 14 days observation, 350 mg/kg
Experimental: After the drug delivery, continuously observe the mice responses for 4 hours; after all, observe the mice twice a day (one is in the morning, and the other is in the afternoon) for 14 days, wherein the observation includes the appearance, behavior, secretions, excreta of the mice etc., and recording all the death situation, poisoning symptoms, the starting time and ending time of toxic reactions of the mice, severity, duration time of toxic, and to see if it is reversible reaction etc., sent it to the pathology examination if necessary, weight the mice before and after the drug delivered day of 3, 7, 10, and 14 days. After finishing the observation process, execute all of the mice, and anatomize the dead bodies of mice.

human glioma U251 cells = assay: MTT anti-tumor test in vitro, U251; format: cell-based; settings: Homo sapiens, U-251, 48 h
Description: as §1, §2, §3, §4, §5

[7] = average of three experiments ± SD
[8] = i.g. 200 mg·(kg·d)^−1, once a day for 10 days
[9] = i.v. 25 mg·(kg·d)^−1, once a day for 10 days
[10] = i.v. 25 mg·(kg·d)^−1, once a day for 10 days (low-dose group)
[11] = i.v. 50 mg·(kg·d)^−1, once a day for 10 days
[12] = i.v. 50 mg·(kg·d)^−1, once a day for 10 days (medium-dose group)
[13] = i.v. 100 mg·(kg·d)^−1, once a day for 10 days
[14] = Hela, average of three experiments ± SD, MTT, 48 hours, read-out: IC50 value
[15] = Hela, experiment 1, MTT, 48 hours, read-out: IC50 value
[16] = Hela, experiment 2, MTT, 48 hours, read-out: IC50 value
[17] = Hela, experiment 3, MTT, 48 hours, read-out: IC50 value
[18] = read-out: HeLa cell proliferation IC50 values
[19] = A549, average of three experiments ± SD, MTT, 48 hours, read-out: IC50 value
[20] = A549, experiment 1, MTT, 48 hours, read-out: IC50 value
[21] = A549, experiment 2, MTT, 48 hours, read-out: IC50 value
[22] = A549, experiment 3, MTT, 48 hours, read-out: IC50 value
[23] = at 48 hours, read-out: A549 cell proliferation IC50 values

Structure (SMILES): COc1ccc(/C=C\C(=O)O)c(OC)c1CC=C(C)C [I-b, (Z)-2,4-dimethoxy-3-isopentenyl-cinnamic acid]
- IC50 [1, 7]: 311 ± 7.31 µg/mL (≈ 1130 µM)
- IC50 ([1]; experiment 1): 312 µg/mL (≈ 1130 µM)
- IC50 ([1]; experiment 2): 317 µg/mL (≈ 1150 µM)
- IC50 ([1]; experiment 3): 303 µg/mL (≈ 1100 µM)
- Tumor weight/g [2, 8]: 1.108 ± 0.364 g
- Tumor weight/g [2, 9]: 1.367 ± 0.524 g
- IR/% (inhibition rate) [2, 10]: 10.8%
- Tumor weight/g [2, 11]: 1.152 ± 0.47 g
- IR/% (inhibition rate) [2, 12]: 24.8%
- Tumor weight/g [2, 13]: 0.911 ± 0.417 g
- IC50 [3, 14]: 324 ± 11.6 µg/mL (≈ 1170 µM)
- IC50 [3, 15]: 331 µg/mL (≈ 1200 µM)
- IC50 [3, 16]: 310 µg/mL (≈ 1120 µM)
- IC50 [3, 17]: 328 µg/mL (≈ 1190 µM)
- IC50 [3, 18]: 324 ± 11.6 µg/mL (≈ 1170 µM)
- IC50 [4, 19]: 218 ± 12.6 µg/mL (≈ 788 µM)
- IC50 [4, 20]: 230 µg/mL (≈ 832 µM)
- IC50 [4, 21]: 216 µg/mL (≈ 782 µM)
- IC50 [4, 22]: 205 µg/mL (≈ 742 µM)
- IC50 [4, 23]: 218 ± 12.6 µg/mL (≈ 788 µM)
- Solubility ([5]; solvent 0.1% NaOH): Soluble
- Solubility ([5]; solvent Acetone): Dissolved
- Solubility ([5]; solvent Chloroform): Dissolved
- Solubility ([5]; solvent DMSO): Soluble
- Solubility ([5]; solvent Ethanol): Dissolved
- Solubility ([5]; solvent Methanol): Soluble
- drug reaction after administration [6]: abnormally excited at first, and then become in an inhibit state
- death / survival in acute toxicity test [6]: All the mice are survived; also recorded: no toxic deaths
- IC50 (human glioma U251 cells; [7]): 287 ± 9.58 µg/mL (≈ 1040 µM)
- IC50 (human glioma U251 cells; experiment 1): 277 µg/mL (≈ 1000 µM)
- IC50 (human glioma U251 cells; experiment 2): 284 µg/mL (≈ 1030 µM)
- IC50 (human glioma U251 cells; experiment 3): 298 µg/mL (≈ 1080 µM)

Structure (SMILES): COc1ccc(/C=C/C(=O)O)c(OC)c1CC=C(C)C [I-c, (E)-2,4-dimethoxy-3-isopentenyl-cinnamic acid]
- IC50 [1, 7]: 235 ± 5.68 µg/mL (≈ 849 µM)
- IC50 ([1]; experiment 1): 234 µg/mL (≈ 847 µM)
- IC50 ([1]; experiment 2): 229 µg/mL (≈ 829 µM)
- IC50 ([1]; experiment 3): 240 µg/mL (≈ 869 µM)
- Tumor weight/g [2, 8]: 0.866 ± 0.489 g
- Tumor weight/g [2, 9]: 1.322 ± 0.278 g
- IR/% (inhibition rate) [2, 10]: 13.7%
- Tumor weight/g [2, 11]: 0.875 ± 0.379 g
- Tumor weight/g [2, 13]: 0.782 ± 0.368 g
- IC50 [3, 14]: 96.2 ± 1.25 µg/mL (≈ 348 µM)
- IC50 [3, 15]: 95 µg/mL (≈ 344 µM)
- IC50 [3, 16]: 85.6 µg/mL (≈ 310 µM)
- IC50 [3, 17]: 97 µg/mL (≈ 351 µM)
- IC50 [3, 18]: 96.2 ± 1.25 µg/mL (≈ 348 µM)
- IC50 [4, 19]: 158 ± 5.66 µg/mL (≈ 572 µM)
- IC50 [4, 20]: 151 µg/mL (≈ 546 µM)
- IC50 [4, 21]: 162 µg/mL (≈ 586 µM)
- IC50 [4, 22]: 159 µg/mL (≈ 575 µM)
- IC50 [4, 23]: 158 ± 5.66 µg/mL (≈ 572 µM)
- Solubility ([5]; solvent 0.1% NaOH): Soluble
- Solubility ([5]; solvent Acetone): Dissolved
- Solubility ([5]; solvent Chloroform): Dissolved
- Solubility ([5]; solvent DMSO): Soluble
- Solubility ([5]; solvent Ethanol): Dissolved
- Solubility ([5]; solvent Methanol): Soluble
- drug reaction after administration [6]: abnormally excited at first, and then become in an inhibit state
- death / survival in acute toxicity test [6]: All the mice are survived; also recorded: no toxic deaths
- IC50 (human glioma U251 cells; [7]): 195 ± 7.31 µg/mL (≈ 704 µM)
- IC50 (human glioma U251 cells; experiment 1): 202 µg/mL (≈ 731 µM)
- IC50 (human glioma U251 cells; experiment 2): 192 µg/mL (≈ 695 µM)
- IC50 (human glioma U251 cells; experiment 3): 188 µg/mL (≈ 680 µM)

Structure (SMILES): COc1ccc(/C=C/C(=O)O)c(O)c1CC=C(C)C [I-a, (E)-2-hydroxy-4-methoxy-3-isopentenyl-cinnamic acid]
- IC50 [1, 7]: 225 ± 11.9 µg/mL (≈ 857 µM)
- IC50 ([1]; experiment 2): 216 µg/mL (≈ 823 µM)
- IC50 ([1]; experiment 3): 219 µg/mL (≈ 835 µM)
- Tumor weight/g [2, 8]: 0.907 ± 0.424 g
- Tumor weight/g [2, 9]: 1.398 ± 0.355 g
- IR/% (inhibition rate) [2, 10]: 8.8%
- Tumor weight/g [2, 11]: 1.047 ± 0.342 g
- IR/% (inhibition rate) [2, 12]: 31.7%
- Tumor weight/g [2, 13]: 0.775 ± 0.381 g
- IC50 [3, 14]: 103 ± 8.48 µg/mL (≈ 391 µM)
- IC50 [3, 16]: 115 µg/mL (≈ 438 µM)
- IC50 [3, 17]: 96 µg/mL (≈ 366 µM)
- IC50 [3, 18]: 103 ± 8.48 µg/mL (≈ 391 µM)
- IC50 [4, 19]: 118 ± 10.6 µg/mL (≈ 451 µM)
- IC50 [4, 21]: 118 µg/mL (≈ 450 µM)
- IC50 [4, 22]: 107 µg/mL (≈ 408 µM)
- IC50 [4, 23]: 118 ± 10.6 µg/mL (≈ 451 µM)
- Solubility ([5]; solvent 0.1% NaOH): Soluble
- Solubility ([5]; solvent Acetone): Soluble
- Solubility ([5]; solvent Chloroform): Dissolved
- Solubility ([5]; solvent DMSO): Soluble
- Solubility ([5]; solvent Ethanol): Soluble
- Solubility ([5]; solvent Methanol): Soluble
- drug reaction after administration [6]: abnormally excited at first, and then become in an inhibit state
- death / survival in acute toxicity test [6]: All the mice are survived; also recorded: no toxic deaths
- IC50 (human glioma U251 cells; [7]): 181 ± 7.98 µg/mL (≈ 691 µM)
- IC50 (human glioma U251 cells; experiment 2): 173 µg/mL (≈ 660 µM)
- IC50 (human glioma U251 cells; experiment 3): 180 µg/mL (≈ 686 µM)
